Laboratory results published in patent publication US8722578B2, “Spiroheterocyclic pyrrolidinedione herbicidal compositions” (Syngenta Participations AG, priority 2008, dated 2014).

Experiments:
Avena fatua (AVEFA) [1] = experiment: Example B pre-emergence herbicidal activity, glasshouse pot test; type: in vivo; conditions: 312 h, first table (headed Post-Emergence, taken as pre-emergence), evaluated after 13 days, read-out: AVEFA activity (100=total damage to plant; 0=no damage to plant); for pest or weed control at 1000 g/ha: rate 1000 g/ha; for pest or weed control at 250 g/ha: rate 250 g/ha
Description: (§1) Seeds of a variety of test species are sown in standard soil in pots. After cultivation for one day (pre-emergence) or after 8 days cultivation (post-emergence) under controlled conditions in a glasshouse (at 24/16° C., day/night; 14 hours light; 65% humidity), the plants are sprayed with an aqueous spray solution derived from the formulation of the technical active ingredient in acetone/water (50:50) solution containing 0.5% Tween 20 (polyoxyethelyene sorbitan monolaurate, CAS RN 9005-64-5). The test plants are then grown in a glasshouse under controlled conditions in a glasshouse (at 24/16° C., day/night; 14 hours light; 65% humidity) and watered twice daily. After 13 days for pre and post-emergence, the test is evaluated (100=total damage to plant; 0=no damage to plant). Test Plants: Setaria faberi (SETFA), Alopecurus myosuroides (ALOMY), Echinochloa crus-galli (ECHCG), Avena fatua (AVEFA)

[2] = test system: Echinochloa crus-galli (ECHCG); experiment: as above; type: in vivo; conditions: 312 h, first table (headed Post-Emergence, taken as pre-emergence), evaluated after 13 days, read-out: ECHCG activity (100=total damage to plant; 0=no damage to plant); for pest or weed control at 1000 g/ha: rate 1000 g/ha; for pest or weed control at 250 g/ha: rate 250 g/ha
Description: as §1

Setaria faberi (SETFA) [3] = experiment: as above; type: in vivo; conditions: 312 h, first table (headed Post-Emergence, taken as pre-emergence), evaluated after 13 days, read-out: SETFA activity (100=total damage to plant; 0=no damage to plant); for pest or weed control at 1000 g/ha: rate 1000 g/ha; for pest or weed control at 250 g/ha: rate 250 g/ha
Description: as §1

[4] = test system: Alopecurus myosuroides (ALOMY); experiment: as above; type: in vivo; conditions: 312 h, first table (headed Post-Emergence, taken as pre-emergence), evaluated after 13 days, read-out: ALOMY activity (100=total damage to plant; 0=no damage to plant); for pest or weed control at 1000 g/ha: rate 1000 g/ha; for pest or weed control at 250 g/ha: rate 250 g/ha
Description: as §1

Lolium perenne (LOLPE) [5] = experiment: Example A post-emergence herbicidal activity, glasshouse pot test; type: in vivo; conditions: 360 h, rate 125 g/ha, evaluated 15 days after spraying, read-out: LOLPE post-emergence activity (100=total damage to plant; 0=no damage to plant)
Description: (§2) Monocotyledonous and dicotyledonous test plants are sown in standard soil in pots. After cultivation for one day (pre-emergence) or after 10 days cultivation (post-emergence) under controlled conditions in a glasshouse, the plants are sprayed with an aqueous spray solution derived from the formulation of the technical active ingredient in 0.6 ml acetone and 45 ml formulation solution containing 10.6% Emulsogen EL (Registry number 61791-12-6), 42.2% N-methylpyrrolidone, 42.2% dipropylene glycol monomethyl ether (Registry number 34590-94-8) and 0.2% X-77 (Registry number 11097-66-8). The test plants are then grown in a greenhouse under optimum conditions until, 15 days later for post-emergence and 20 days for pre-emergence, the test is evaluated (100=total damage to plant; 0=no damage to plant). Test Plants: Alopecurus myosuroides (ALOMY), Avena fatua (AVEFA), Lolium perenne (LOLPE), Setaria faberi (SETFA), Digitaria sanguinalis (DIGSA), Echinochloa crus-galli (ECHCG) Post-Emergence Activity

[6] = test system: Digitaria sanguinalis (DIGSA); experiment: as above; type: in vivo; conditions: 360 h, rate 125 g/ha, evaluated 15 days after spraying, read-out: DIGSA post-emergence activity (100=total damage to plant; 0=no damage to plant)
Description: as §2

Avena fatua (AVEFA) [7] = experiment: as above; type: in vivo; conditions: 360 h, rate 125 g/ha, evaluated 15 days after spraying, read-out: AVEFA post-emergence activity (100=total damage to plant; 0=no damage to plant)
Description: as §2

[8] = test system: Echinochloa crus-galli (ECHCG); experiment: as above; type: in vivo; conditions: 360 h, rate 125 g/ha, evaluated 15 days after spraying, read-out: ECHOG post-emergence activity (100=total damage to plant; 0=no damage to plant)
Description: as §2

Setaria faberi (SETFA) [9] = experiment: as above; type: in vivo; conditions: 360 h, rate 125 g/ha, evaluated 15 days after spraying, read-out: SETFA post-emergence activity (100=total damage to plant; 0=no damage to plant)
Description: as §2

[10] = test system: Alopecurus myosuroides (ALOMY); experiment: as above; type: in vivo; conditions: 360 h, rate 125 g/ha, evaluated 15 days after spraying, read-out: ALOMY post-emergence activity (100=total damage to plant; 0=no damage to plant)
Description: as §2

Lolium perenne (LOLPE) [11] = experiment: Example A pre-emergence herbicidal activity, glasshouse pot test; type: in vivo; conditions: 480 h, rate 250 g/ha, evaluated 20 days after spraying, read-out: LOLPE pre-emergence activity (100=total damage to plant; 0=no damage to plant)
Description: as §2, with “Pre-Emergence” for “Post-Emergence”

[12] = test system: Digitaria sanguinalis (DIGSA); experiment: as above; type: in vivo; conditions: 480 h, rate 250 g/ha, evaluated 20 days after spraying, read-out: DIGSA pre-emergence activity (100=total damage to plant; 0=no damage to plant)
Description: as §2, with “Pre-Emergence” for “Post-Emergence”

Avena fatua (AVEFA) [13] = experiment: as above; type: in vivo; conditions: 480 h, rate 250 g/ha, evaluated 20 days after spraying, read-out: AVEFA pre-emergence activity (100=total damage to plant; 0=no damage to plant)
Description: as §2, with “Pre-Emergence” for “Post-Emergence”

[14] = test system: Echinochloa crus-galli (ECHCG); experiment: as above; type: in vivo; conditions: 480 h, rate 250 g/ha, evaluated 20 days after spraying, read-out: ECHOG pre-emergence activity (100=total damage to plant; 0=no damage to plant)
Description: as §2, with “Pre-Emergence” for “Post-Emergence”

Setaria faberi (SETFA) [15] = experiment: as above; type: in vivo; conditions: 480 h, rate 250 g/ha, evaluated 20 days after spraying, read-out: SETFA pre-emergence activity (100=total damage to plant; 0=no damage to plant)
Description: as §2, with “Pre-Emergence” for “Post-Emergence”

[16] = test system: Alopecurus myosuroides (ALOMY); experiment: as above; type: in vivo; conditions: 480 h, rate 250 g/ha, evaluated 20 days after spraying, read-out: ALOMY pre-emergence activity (100=total damage to plant; 0=no damage to plant)
Description: as §2, with “Pre-Emergence” for “Post-Emergence”

Avena fatua (AVEFA) [17] = experiment: Example B post-emergence herbicidal activity, glasshouse pot test; type: in vivo; conditions: 312 h, evaluated after 13 days, read-out: AVEFA post-emergence activity (100=total damage to plant; 0=no damage to plant); for pest or weed control at 1000 g/ha: rate 1000 g/ha; for pest or weed control at 250 g/ha: rate 250 g/ha
Description: as §1

[18] = test system: Echinochloa crus-galli (ECHCG); experiment: as above; type: in vivo; conditions: 312 h, evaluated after 13 days, read-out: ECHCG post-emergence activity (100=total damage to plant; 0=no damage to plant); for pest or weed control at 1000 g/ha: rate 1000 g/ha; for pest or weed control at 250 g/ha: rate 250 g/ha
Description: as §1

Setaria faberi (SETFA) [19] = experiment: as above; type: in vivo; conditions: 312 h, evaluated after 13 days, read-out: SETFA post-emergence activity (100=total damage to plant; 0=no damage to plant); for pest or weed control at 1000 g/ha: rate 1000 g/ha; for pest or weed control at 250 g/ha: rate 250 g/ha
Description: as §1

[20] = test system: Alopecurus myosuroides (ALOMY); experiment: as above; type: in vivo; conditions: 312 h, evaluated after 13 days, read-out: ALOMY post-emergence activity (100=total damage to plant; 0=no damage to plant); for pest or weed control at 1000 g/ha: rate 1000 g/ha; for pest or weed control at 250 g/ha: rate 250 g/ha
Description: as §1

| melting point | SMILES | pest or weed control at 1000 g/ha (Avena fatua (AVEFA) [1]) | pest or weed control at 1000 g/ha [2] | pest or weed control at 1000 g/ha (Setaria faberi (SETFA) [3]) | pest or weed control at 1000 g/ha [4] | pest or weed control at 125 g/ha (Lolium perenne (LOLPE) [5]) | pest or weed control at 125 g/ha [6] | pest or weed control at 125 g/ha (Avena fatua (AVEFA) [7]) | pest or weed control at 125 g/ha [8] | pest or weed control at 125 g/ha (Setaria faberi (SETFA) [9]) | pest or weed control at 125 g/ha [10] | pest or weed control at 250 g/ha (Lolium perenne (LOLPE) [11]) | pest or weed control at 250 g/ha [12] | pest or weed control at 250 g/ha (Avena fatua (AVEFA) [13]) | pest or weed control at 250 g/ha [14] | pest or weed control at 250 g/ha (Setaria faberi (SETFA) [15]) | pest or weed control at 250 g/ha [16] | pest or weed control at 1000 g/ha (Avena fatua (AVEFA) [17]) | pest or weed control at 1000 g/ha [18] | pest or weed control at 1000 g/ha (Setaria faberi (SETFA) [19]) | other results |
| --- | --- | --- | --- | --- | --- | --- | --- | --- | --- | --- | --- | --- | --- | --- | --- | --- | --- | --- | --- | --- | --- |
| 209 to 211 °C | CCOC(=O)OC1=C(c2cc(-c3ccc(Cl)cc3)ccc2C)C(=O)NC12CCN(OC)CC2 [Compound P29] | 90% | 100% | 100% | 70% | 80% | 100% | 90% | 100% | 90% | 90% | 10% | 20% | 50% | 60% | 0% | 20% | 100% | 100% | 100% | pest or weed control at 1000 g/ha [20]: 100% |
| 211 to 213 °C | CCOC(=O)OC1=C(c2cc(-c3ccc(Cl)cc3)c(C)cc2C)C(=O)NC12CCN(OC)CC2 [Compound P53] | – | – | – | – | 0% | 60% | 0% | 60% | 50% | 20% | 20% | 60% | 30% | 50% | 40% | 0% | – | – | – | pest or weed control at 250 g/ha (Avena fatua (AVEFA) [1]): 0%; pest or weed control at 250 g/ha [2]: 0%; pest or weed control at 250 g/ha (Setaria faberi (SETFA) [3]): 80%; pest or weed control at 250 g/ha [4]: 0%; pest or weed control at 250 g/ha (Avena fatua (AVEFA) [17]): 30%; pest or weed control at 250 g/ha [18]: 90%; pest or weed control at 250 g/ha (Setaria faberi (SETFA) [19]): 90%; pest or weed control at 250 g/ha [20]: 70% |
| 223 to 225 °C | CON1CCC2(CC1)NC(=O)C(c1ccc(Br)cc1Cl)=C2OC(=O)C(C)(C)C [Compound P67] | – | – | – | – | 40% | 80% | 60% | 70% | 70% | 40% | 10% | 20% | 40% | 60% | 50% | 0% | – | – | – | pest or weed control at 250 g/ha (Avena fatua (AVEFA) [1]): 60%; pest or weed control at 250 g/ha [2]: 70%; pest or weed control at 250 g/ha (Setaria faberi (SETFA) [3]): 100%; pest or weed control at 250 g/ha [4]: 80%; pest or weed control at 250 g/ha (Avena fatua (AVEFA) [17]): 60%; pest or weed control at 250 g/ha [18]: 100%; pest or weed control at 250 g/ha (Setaria faberi (SETFA) [19]): 90%; pest or weed control at 250 g/ha [20]: 100% |
| 187 to 189 °C | CCOC(=O)OC1=C(c2ccc(Cl)cc2Cl)C(=O)NC12CCN(OC)CC2 [Compound P16] | 50% | 40% | 90% | 70% | 20% | 50% | 30% | 50% | 50% | 70% | 50% | 0% | 30% | 20% | 10% | 30% | 80% | 100% | 100% | pest or weed control at 1000 g/ha [20]: 100% |
